Measurements taken from the NIST ThermoML archive (doi:10.1016/j.jct.2013.08.016).

Legend:
[1] = mn = molality of the nth substance listed, in mol/kg; conditions: 101.3 kPa, Liquid; for viscosity: Capillary tube (Ostwald / Ubbelohde) method; for mass density: Pycnometric method; for speed of sound: Single path-length method
[2] = refractive index (Na D-line) (dimensionless); mn = molality of the nth substance listed, in mol/kg; conditions: 101.3 kPa, Liquid, Standard Abbe refractometry

O=C1O[C@H]([C@@H](O)CO)C(O)=C1O [L-ascorbic acid] + O
Conditions	mass density, [1] [kg/m3]	refractive index, [2]	speed of sound, [1] [m/s]	viscosity, [1] [mPa·s]
278.15 K, m1 = 0.0502	1003.69	1.3353	1429.5	1.566
278.15 K, m1 = 0.0997	1007.29	1.3365	1432.8	1.606
278.15 K, m1 = 0.1384	1010.1	1.3378	1434.7	1.634
278.15 K, m1 = 0.1964	1014.25	1.3394	1438.5	1.668
278.15 K, m1 = 0.2338	1016.85	1.3405	1440.5	1.699
278.15 K, m1 = 0.2927	1020.96	1.3419	1443.6	1.737
278.15 K, m1 = 0.3392	1024.27	1.3434	1445.3	1.77
278.15 K, m1 = 0.4069	1028.56	1.3448	1448.9	1.813
278.15 K, m1 = 0.4383	1030.63	1.3459	1451.3	1.842
278.15 K, m1 = 0.4932	1034.36	1.3472	1454.6	1.874
278.15 K, m1 = 0.5541	1038.24	1.3489	1458.2	1.921
278.15 K, m1 = 0.6251	1042.79	1.351	1463.2	1.974
278.15 K, m1 = 0.711	1048.36	1.3533	1467.3	2.033
278.15 K, m1 = 0.7457	1050.45	1.3544	1469.1	2.05
288.15 K, m1 = 0.0496	1002.68	1.3348	1468.6	1.165
288.15 K, m1 = 0.1009	1006.33	1.3364	1471.2	1.184
288.15 K, m1 = 0.1408	1009.14	1.3378	1473.2	1.205
288.15 K, m1 = 0.1952	1012.94	1.339	1476.3	1.236
288.15 K, m1 = 0.2426	1016.2	1.34	1479	1.257
288.15 K, m1 = 0.2997	1020.14	1.3417	1481.7	1.282
288.15 K, m1 = 0.3402	1022.83	1.3428	1483.8	1.288
288.15 K, m1 = 0.3936	1026.48	1.3441	1487.6	1.325
288.15 K, m1 = 0.4492	1030.03	1.3456	1489.1	1.353
288.15 K, m1 = 0.5096	1034.09	1.3471	1492.7	1.386
288.15 K, m1 = 0.5782	1038.38	1.3489	1496.4	1.424
288.15 K, m1 = 0.6302	1041.56	1.3499	1499.1	1.444
288.15 K, m1 = 0.6984	1046.01	1.352	1501.6	1.475
288.15 K, m1 = 0.7426	1048.42	1.3529	1503.6	1.494
298.15 K, m1 = 0.0502	1000.6	1.3339	1498.9	0.9072
298.15 K, m1 = 0.1017	1004.18	1.3354	1501.5	0.9235
298.15 K, m1 = 0.1409	1006.8	1.3365	1503.4	0.935
298.15 K, m1 = 0.1988	1010.73	1.338	1505.2	0.9544
298.15 K, m1 = 0.2402	1013.54	1.3391	1506.7	0.9688
298.15 K, m1 = 0.2987	1017.33	1.3407	1508.9	0.9928
298.15 K, m1 = 0.3421	1020.12	1.3418	1510.9	1.007
298.15 K, m1 = 0.4046	1024.34	1.3431	1514.2	1.028
298.15 K, m1 = 0.4536	1027.31	1.3443	1518.2	1.046
298.15 K, m1 = 0.5119	1030.98	1.3461	1520	1.068
298.15 K, m1 = 0.5788	1035.16	1.3478	1521.8	1.093
298.15 K, m1 = 0.6259	1038.06	1.3497	1523.6	1.111
298.15 K, m1 = 0.6974	1042.37	1.3508	1525.5	1.141
298.15 K, m1 = 0.7486	1045.37	1.3518	1527.3	1.164

O=C1O[C@H]([C@@H](O)CO)C([O-])=C1O.[Na+] [sodium L-ascorbate] + O
Conditions	mass density, [1] [kg/m3]	refractive index, [2]	speed of sound, [1] [m/s]	viscosity, [1] [mPa·s]
278.15 K, m1 = 0.0495	1005.25	1.3359	1432.4	1.564
278.15 K, m1 = 0.102	1010.89	1.338	1438.9	1.61
278.15 K, m1 = 0.1378	1014.72	1.3388	1443.6	1.633
278.15 K, m1 = 0.2009	1021.3	1.3411	1451.6	1.693
278.15 K, m1 = 0.2329	1024.63	1.3428	1456.6	1.727
278.15 K, m1 = 0.2951	1030.95	1.3448	1463.8	1.787
278.15 K, m1 = 0.3361	1035.04	1.3461	1469.1	1.828
278.15 K, m1 = 0.3968	1041.02	1.3485	1478.2	1.891
278.15 K, m1 = 0.4287	1044.29	1.3498	1480	1.925
278.15 K, m1 = 0.4929	1050.46	1.3519	1489.1	1.995
278.15 K, m1 = 0.5436	1055.28	1.3536	1494.6	2.052
278.15 K, m1 = 0.6275	1063.15	1.3564	1503.6	2.152
278.15 K, m1 = 0.6583	1065.96	1.3571	1509.1	2.192
278.15 K, m1 = 0.7407	1073.42	1.3602	1518.2	2.291
288.15 K, m1 = 0.0403	1003.38	1.3351	1470.4	1.167
288.15 K, m1 = 0.1263	1012.42	1.3373	1479.2	1.209
288.15 K, m1 = 0.1604	1015.94	1.3392	1483.6	1.24
288.15 K, m1 = 0.2478	1024.69	1.3423	1494.4	1.303
288.15 K, m1 = 0.301	1029.91	1.3439	1499.1	1.339
288.15 K, m1 = 0.3509	1034.82	1.346	1505.9	1.37
288.15 K, m1 = 0.4457	1043.86	1.3493	1518.2	1.45
288.15 K, m1 = 0.5156	1050.33	1.3502	1525.5	1.504
288.15 K, m1 = 0.5987	1057.95	1.3543	1532.7	1.575
288.15 K, m1 = 0.6446	1062.31	1.3558	1540	1.608
288.15 K, m1 = 0.6909	1066.4	1.3572	1545.5	1.652
288.15 K, m1 = 0.7466	1071.4	1.3592	1552	1.708
298.15 K, m1 = 0.0503	1002.31	1.3344	1501.9	0.9169
298.15 K, m1 = 0.1005	1007.49	1.3362	1507.2	0.9381
298.15 K, m1 = 0.1492	1012.47	1.3378	1512.6	0.9628
298.15 K, m1 = 0.1993	1017.5	1.3397	1518.1	0.9898
298.15 K, m1 = 0.2452	1022.1	1.3414	1522.5	1.007
298.15 K, m1 = 0.301	1027.58	1.3434	1527.6	1.04
298.15 K, m1 = 0.3456	1031.8	1.3449	1533.1	1.062
298.15 K, m1 = 0.4112	1038.01	1.347	1539.9	1.097
298.15 K, m1 = 0.4397	1040.84	1.3479	1542	1.113
298.15 K, m1 = 0.4892	1045.65	1.3495	1547.2	1.146
298.15 K, m1 = 0.5491	1051.09	1.3516	1554.4	1.183
298.15 K, m1 = 0.6035	1056.1	1.3534	1559.1	1.223
298.15 K, m1 = 0.6697	1062.08	1.3553	1565.3	1.257
298.15 K, m1 = 0.7314	1067.47	1.3571	1572.6	1.301
